Experiments:
Mus musculus [1] = experiment: Antagonism of delta1 opioid agonist (DPDPE)-induced antinociception upon intrathecal administration in mice at a dose of 2.5 pmol; type: functional
Mus musculus [2] = experiment: Antagonism of delta2 opioid agonist (deltorphin II)-induced antinociception upon intrathecal administration in mice at a dose of 2.5 pmol; type: functional
Opioid receptor [3] = target: T1, Opioid receptor (Mus musculus, UniProt P42866+P32300+P33534); experiment: Compound was tested for binding affinity on intact HEK cells using [3H]diprenorphine as radioligand co-expressed with delta and kappa opioid receptors; type: cell-based; conditions: hek293
Opioid receptor [4] = target: T1, Opioid receptor; experiment: Compound was tested for binding affinity on intact HEK cells using [3H]diprenorphine as radioligand singly expressed with delta or kappa receptors.; type: cell-based; conditions: hek293
Mus musculus [5] = experiment: Antagonism of kappa2 opioid agonist (bremazocine)-induced antinociception upon intrathecal administration in mice at a dose of 2.5 pmol; type: functional
Mus musculus [6] = experiment: Antagonism of kappa1 opioid agonist (U-50,488)-induced antinociception upon intrathecal administration in mice at a dose of 2.5 pmol; type: functional
Opioid receptor [7] = target: T1, Opioid receptor; experiment: Compound was tested for binding affinity on intact HEK cells using [3H]diprenorphine as radioligand singly expressed with delta or kappa receptor; type: cell-based, Homo sapiens; conditions: hek293
Mus musculus [8] = experiment: Antagonism of kappa2 opioid agonist (bremazocine)-induced antinociception upon intrathecal administration in mice at a dose of 25 pmol; type: functional
Mus musculus [9] = experiment: Antagonism of delta2 opioid agonist (deltorphin II)-induced antinociception upon intrathecal administration in mice at a dose of 25 pmol; type: functional
Opioid receptor [10] = target: T1, Opioid receptor; experiment: Compound was tested for binding affinity on intact HEK cells using [3H]diprenorphine as radioligand co-expressed with delta and kappa opioid receptor; type: cell-based; conditions: hek293
Mus musculus [11] = experiment: Antagonism of delta1 opioid agonist (DPDPE)-induced antinociception upon intrathecal administration in mice at a dose of 25 pmol; type: functional
Mus musculus [12] = experiment: Antagonism of kappa2 opioid agonist (bremazocine)-induced antinociception upon intrathecal administration in mice at a dose of 30 pmol; type: functional
Mus musculus [13] = experiment: Antagonism of delta2 opioid agonist (deltorphin II)-induced antinociception upon intrathecal administration in mice at a dose of 30 pmol; type: functional
Mus musculus [14] = experiment: Antagonism of kappa1 opioid agonist (U-50,488)-induced antinociception upon intrathecal administration in mice at a dose of 30 pmol; type: functional
Mus musculus [15] = experiment: Antagonism of delta1 opioid agonist (DPDPE)-induced antinociception upon intrathecal administration in mice at a dose of 30 pmol; type: functional
Mus musculus [16] = experiment: Antagonism of delta2 opioid agonist (deltorphin II)-induced antinociception upon intrathecal administration in mice at a dose of 1.0 pmol; type: functional
Mus musculus [17] = experiment: Antagonism of kappa2 opioid agonist (bremazocine)-induced antinociception upon intrathecal administration in mice at a dose of 1.0 pmol; type: functional
Mus musculus [18] = experiment: Antagonism of delta1 opioid agonist (DPDPE)-induced antinociception upon intrathecal administration in mice at a dose of 1.0 pmol; type: functional
Mus musculus [19] = experiment: Antagonism of kappa1 opioid agonist (U-50,488)-induced antinociception upon intrathecal administration in mice at a dose of 25 pmol; type: functional
Mus musculus [20] = experiment: Antagonism of delta2 opioid agonist (deltorphin II)-induced antinociception upon intrathecal administration in mice at a dose of 50 pmol; type: functional
Mus musculus [21] = experiment: Antagonism of kappa2 opioid agonist (bremazocine)-induced antinociception upon intrathecal administration in mice at a dose of 50 pmol; type: functional
Mus musculus [22] = experiment: Antagonism of kappa1 opioid agonist (U-50,488)-induced antinociception upon intrathecal administration in mice at a dose of 50 pmol; type: functional
Mus musculus [23] = experiment: Antagonism of delta1 opioid agonist (DPDPE)-induced antinociception upon intrathecal administration in mice at a dose of 50 pmol; type: functional
Mus musculus [24] = experiment: Antagonism of delta2 opioid agonist (deltorphin II)-induced antinociception upon intrathecal administration in mice at a dose of 250 pmol; type: functional
Mus musculus [25] = experiment: Antagonism of kappa2 opioid agonist (bremazocine)-induced antinociception upon intrathecal administration in mice at a dose of 250 pmol; type: functional
Mus musculus [26] = experiment: Antagonism of delta1 opioid agonist (DPDPE)-induced antinociception upon intrathecal administration in mice at a dose of 250 pmol; type: functional
Mus musculus [27] = experiment: Antagonism of kappa1 opioid agonist (U-50,488)-induced antinociception upon intrathecal administration in mice at a dose of 250 pmol; type: functional

## NC(=NCCNC(=O)CNC(=O)CNC(=O)CCC(=O)NCC(=O)NCC(=O)Nc1cccc2c3c([nH]c12)[C@@H]1Oc2c(O)ccc4c2C12CCN(CC1CC1)C(C4)[C@]2(O)C3)Nc1ccc2[nH]c3c(c2c1)C[C@@]1(O)C2Cc4ccc(O)c5c4C1(CCN2CC1CC1)[C@H]3O5 (some centres undefined)
Mus musculus [1]
  ED50: 3.4 nM mouse-1
Mus musculus [2]
  ED50: 1.1 nM mouse-1
Opioid receptor [3]
  Ki: 0.5 nM
Opioid receptor [4]
  Ki: 58.8 nM
Mus musculus [5]
  ED50: 1.7 nM mouse-1

## NC(=NCCCCNC(=O)CNC(=O)CNC(=O)CCC(=O)NCC(=O)NCC(=O)Nc1cccc2c3c([nH]c12)[C@@H]1Oc2c(O)ccc4c2C12CCN(CC1CC1)C(C4)[C@]2(O)C3)Nc1ccc2[nH]c3c(c2c1)C[C@@]1(O)C2Cc4ccc(O)c5c4C1(CCN2CC1CC1)[C@H]3O5 (some centres undefined)
Mus musculus [1]
  ED50: 6.3 nM mouse-1
Mus musculus [2]
  ED50: 2.2 nM mouse-1
Mus musculus [6]
  ED50: 0.6 nM mouse-1
Opioid receptor [3]
  Ki: 1.4 nM
Opioid receptor [7]
  Ki: 1.1 nM
Mus musculus [5]
  ED50: 1.7 nM mouse-1

## O=C(CCC(=O)NCC(=O)NCC(=O)Nc1cccc2c3c([nH]c12)[C@@H]1Oc2c(O)ccc4c2C12CCN(CC1CC1)C(C4)[C@]2(O)C3)NCC(=O)NCC(=O)NCCCNC(=O)c1cccc2c3c([nH]c12)[C@@H]1Oc2c(O)ccc4c2C12CCN(CC1CC1)C(C4)[C@]2(O)C3 (some centres undefined)
Mus musculus [8]
  ED50: 2.4 nM mouse-1
Mus musculus [9]
  ED50: 2.4 nM mouse-1
Opioid receptor [10]
  Ki: > 1000 nM
Mus musculus [11]
  ED50: 1.1 nM mouse-1
Opioid receptor [7]
  Ki: 199 nM

## N/C(=N\CCCCCNC(=O)CNC(=O)CNC(=O)CCC(=O)NCC(=O)NCC(=O)Nc1cccc2c3c([nH]c12)[C@@H]1Oc2c(O)ccc4c2C12CCN(CC1CC1)C(C4)[C@]2(O)C3)Nc1ccc2[nH]c3c(c2c1)C[C@@]1(O)C2Cc4ccc(O)c5c4C1(CCN2CC1CC1)[C@H]3O5 (some centres undefined)
Mus musculus [1]
  ED50: 2.2 nM mouse-1
Mus musculus [2]
  ED50: 2.1 nM mouse-1
Opioid receptor [10]
  Ki: 4.8 nM
Opioid receptor [7]
  Ki: 3.3 nM
Mus musculus [5]
  ED50: 4.1 nM mouse-1

## N/C(=N\CCCNC(=O)CNC(=O)CNC(=O)CCC(=O)NCC(=O)NCC(=O)Nc1cccc2c3c([nH]c12)[C@@H]1Oc2c(O)ccc4c2C12CCN(CC1CC1)C(C4)[C@]2(O)C3)Nc1ccc2[nH]c3c(c2c1)C[C@@]1(O)C2Cc4ccc(O)c5c4C1(CCN2CC1CC1)[C@H]3O5 (some centres undefined)
Mus musculus [12]
  ED50: 50.4 nM mouse-1
Mus musculus [13]
  ED50: 1.2 nM mouse-1
Opioid receptor [3]
  Ki: 0.3 nM
Mus musculus [14]
  ED50: 1.9 nM mouse-1
Opioid receptor [4]
  Ki: 63 nM
Mus musculus [15]
  ED50: 8 nM mouse-1

## N/C(=N\CCCNC(=O)CNC(=O)CNC(=O)CCC(=O)NCC(=O)NCC(=O)Nc1ccc2[nH]c3c(c2c1)C[C@]1(O)C2Cc4ccc(O)c5c4C1(CCN2CC1CC1)[C@@H]3O5)Nc1ccc2[nH]c3c(c2c1)C[C@]1(O)C2Cc4ccc(O)c5c4C1(CCN2CC1CC1)[C@@H]3O5 (some centres undefined)
Mus musculus [12]
  ED50: 14.5 nM mouse-1
Mus musculus [13]
  ED50: 1 nM mouse-1
Opioid receptor [3]
  Ki: > 1000 nM
Opioid receptor [7]
  Ki: 54.8 nM
Mus musculus [15]
  ED50: 1.1 nM mouse-1

## N/C(=N\CCCNC(=O)CNC(=O)CCC(=O)NCC(=O)Nc1cccc2c3c([nH]c12)[C@@H]1Oc2c(O)ccc4c2[C@@]12CCN(CC1CC1)[C@H](C4)[C@]2(O)C3)Nc1ccc2[nH]c3c(c2c1)C[C@@]1(O)[C@H]2Cc4ccc(O)c5c4[C@@]1(CCN2CC1CC1)[C@H]3O5
Opioid receptor [3]
  Ki: 315 nM
Mus musculus [16]
  ED50: 1.9 nM mouse-1
Opioid receptor [4]
  Ki: 6.3 nM
Mus musculus [17]
  ED50: 2.5 nM mouse-1
Mus musculus [18]
  ED50: 2 nM mouse-1

## O=C1/C(=C/c2ccccc2)C[C@@]2(O)[C@H]3Cc4ccc(O)c5c4[C@@]2(CCN3CC2CC2)[C@H]1O5 [BNTX]
Mus musculus [8]
  ED50: 49.8 nM mouse-1
Mus musculus [9]
  ED50: 1 nM mouse-1
Mus musculus [11]
  ED50: 10.6 nM mouse-1
Mus musculus [19]
  ED50: 0.9 nM mouse-1

## Oc1ccc2c3c1O[C@H]1c4oc5ccccc5c4C[C@@]4(O)[C@@H](C2)N(CC2CC2)CC[C@]314 [NALTRIBEN]
Mus musculus [20]
  ED50: 9.1 nM mouse-1
Mus musculus [21]
  ED50: 5.8 nM mouse-1
Mus musculus [22]
  ED50: 0.8 nM mouse-1
Mus musculus [23]
  ED50: 1 nM mouse-1

## Oc1ccc2c3c1O[C@H]1c4[nH]c5c(c4C[C@@]4(O)[C@@H](C2)N(CC2CC2)CC[C@]314)C[C@@]1(O)[C@H]2Cc3ccc(O)c4c3[C@@]1(CCN2CC1CC1)[C@H]5O4 [NORBINALTORPHIMINE]
Mus musculus [24]
  ED50: 1 nM mouse-1
Mus musculus [25]
  ED50: 129.5 nM mouse-1
Mus musculus [26]
  ED50: 12.4 nM mouse-1
Mus musculus [27]
  ED50: 5.3 nM mouse-1

From ChEMBL document CHEMBL1138828, “A bivalent ligand (KDN-21) reveals spinal delta and kappa opioid receptors are organized as heterodimers that give rise to delta(1) and kappa(2) phenotypes. Selective targeting of delta-kappa heterodimers” (J Med Chem, 2004)
